{
  "source": "patent US7183075B2",
  "about": "“Purified and isolated potassium-chloride cotransporter nucleic acids and polypeptides and therapeutic and screening methods using same” (Vanderbilt University, priority 2000, dated 2007)",
  "biological_target": "T1, xKCC (Xenopus laevis, UniProt A0A1L8HZL0)",
  "T1 sequence (A0A1L8HZL0 1-1133)": "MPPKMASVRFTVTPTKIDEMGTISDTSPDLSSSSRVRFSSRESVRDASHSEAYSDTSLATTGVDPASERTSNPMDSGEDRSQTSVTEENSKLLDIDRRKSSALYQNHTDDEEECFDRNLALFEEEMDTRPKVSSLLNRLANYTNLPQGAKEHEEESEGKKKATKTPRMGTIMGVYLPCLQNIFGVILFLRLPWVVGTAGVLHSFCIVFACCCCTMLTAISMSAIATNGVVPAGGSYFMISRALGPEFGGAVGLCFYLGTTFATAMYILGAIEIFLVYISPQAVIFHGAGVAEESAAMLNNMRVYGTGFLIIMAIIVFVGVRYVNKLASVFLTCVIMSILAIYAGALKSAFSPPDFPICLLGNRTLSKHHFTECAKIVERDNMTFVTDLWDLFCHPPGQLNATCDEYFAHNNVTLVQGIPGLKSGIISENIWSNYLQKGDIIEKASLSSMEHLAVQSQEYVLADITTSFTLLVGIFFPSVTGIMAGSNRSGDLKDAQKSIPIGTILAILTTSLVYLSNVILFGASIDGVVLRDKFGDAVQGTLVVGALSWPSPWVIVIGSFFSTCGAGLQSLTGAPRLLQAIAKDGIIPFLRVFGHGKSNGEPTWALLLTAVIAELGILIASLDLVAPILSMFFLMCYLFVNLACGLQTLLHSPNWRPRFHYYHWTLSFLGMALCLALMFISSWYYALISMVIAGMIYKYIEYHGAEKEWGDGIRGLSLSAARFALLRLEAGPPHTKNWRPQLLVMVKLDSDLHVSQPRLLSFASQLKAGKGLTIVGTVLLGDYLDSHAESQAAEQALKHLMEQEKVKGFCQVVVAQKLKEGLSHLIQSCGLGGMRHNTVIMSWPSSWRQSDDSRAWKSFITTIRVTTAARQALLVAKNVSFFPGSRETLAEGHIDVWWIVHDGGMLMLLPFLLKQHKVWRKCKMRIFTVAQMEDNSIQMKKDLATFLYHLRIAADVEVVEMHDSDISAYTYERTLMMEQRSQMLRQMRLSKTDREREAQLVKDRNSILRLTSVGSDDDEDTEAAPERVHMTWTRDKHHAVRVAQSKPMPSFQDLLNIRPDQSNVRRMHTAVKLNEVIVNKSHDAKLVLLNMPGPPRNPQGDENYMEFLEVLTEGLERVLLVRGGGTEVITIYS",
  "experiment": "86Rb+ uptake by the endogenous K+-Cl- cotransporter of water-injected Xenopus oocytes",
  "type": "cell-based",
  "settings": "for Km: xKCC",
  "experimental": "Oocytes were surgically collected from anesthetized female Xenopus adults under 0.17% tricaine and incubated for 1 hour with vigorous shaking in frog Ringer ND96 (96 mM sodium chloride, 2 mM potassium chloride, 1.8 mM calcium chloride, 1.0 mM magnesium chloride, and 5 mM Hepes/Tris, pH 7.4) in the presence of 2 mg/ml collagenase B. Oocytes were then washed four times in ND96, manually defolliculated, and incubated overnight in ND96 at 18° C. On the next day, defolliculated stage V–VI oocytes were injected with 50 nl of water or a solution containing cRNA at a concentration of 0.25–0.5 μg/μl (25 ng/oocyte). Oocytes were incubated at 17–18° C. in ND96 (96 mM sodium chloride, 2 mM potassium chloride, 1.8 mM calcium chloride, 1.0 mM magnesium chloride, and 5 mM Hepes/Tris, pH 7.4), supplemented with 2.5 mM sodium pyruvate and 5 mg/100 ml gentamicin, for 3–4 days. The incubation medium was changed every 24 hours. On the day of the experiment, oocytes were switched to Cl^−-free ND96 (96 mM Na^+ Na^+ isethionate, 2 mM K^+ gluconate, 6 mM Ca^2+ gluconate, 1 mM Mg^2+ gluconate, 5 mM Hepes, 2.5 mM sodium pyruvate, 5 mg/100 ml gentamicin, pH 7.4) for 2 hours prior to the uptake assay.\nK^+—Cl^− cotransport was assessed by measuring tracer ^86Rb^+ uptake (NEN® Life Science Products of Boston, Mass.) in experimental groups of at least 15 oocytes. Since both KCC4 and KCC1 display minimal activity under isotonic conditions ^86Rb^+ uptake was generally assessed in oocytes swollen by a 30-minute incubation period in a hypotonic K^+ and Cl^−-free medium (50 mM N-methyl-D-glucamine (NMDG) gluconate, 4.6 mM Ca^2+ gluconate, 1.0 mM Mg^2+ gluconate, 5 mM Hepes, pH 7.4) with 1 mM ouabain, followed by a 60-minute uptake period in a hypotonic Na^+-free medium with variable K^+—Cl^− content. […] All uptake solutions also contained 1.8 mM CaCl2, 1 mM MgCl2, 5 mM Hepes, pH 7.4, and were supplemented with 1 mM ouabain and […] ^86Rb^+. […]\nAll uptake assays were performed at 32° C. […] Oocytes were dissolved in 10% SDS, and tracer activity was determined for each oocyte by β-scintillation counting.",
  "note": "Read-outs that look alike come from different tables or passages of the source.",
  "data": [
    {"molecule": "[K+]", "note": "[Potassium]", "values": [
      {"measurement": "Km", "setting": "read-out: Potassium Km", "result": 27.7, "unit": "mM"}
    ]},
    {"molecule": "CCN1C(=O)C=CC1=O", "note": "[NEM, N-ethylmaleimide]", "values": [
      {"measurement": "86Rb+ uptake due to endogenous oocyte K+-Cl- cotransporter", "setting": "NEM, H2O-injected oocytes, both isotonic and hypotonic", "result": "significantly increased"}
    ]},
    {"molecule": "Cl", "note": "[Chloride]", "values": [
      {"measurement": "Km", "setting": "read-out: Chloride Km", "result": 15.4, "unit": "mM"}
    ]}
  ]
}
